Patent US9663478B2, “Benzotriazine oxides as drugs targeting Mycobacterium tuberculosis” (priority 2011, dated 2017)
Values after ≈ are worked out from the molar mass of the structure shown. Read-outs that look alike come from different tables or passages of the source.

How the values were obtained:
Mtb H37Rv [1] = assay: TB MIC - SRI, resazurin-based microplate assay; assay type: cell-based, Mycobacterium tuberculosis; settings: Mycobacterium tuberculosis, H37RV
Vero cells = settings: African green monkey, 72 h
Mtb H37Rv [2] = assay: TB MIC - ITR (UIC), Institute for Tuberculosis Research; assay type: cell-based, Mycobacterium tuberculosis; settings: Table P3
[3] = Tables P1-P3, read-out: TB MIC - SRI
[4] = read-out: Activity against H37Rv, Table P4
[5] = read-out: TB MIC - SRI, Tables P1-P3
[6] = Table P4, read-out: Activity against H37Rv

Row | SMILES | MIC (Mtb H37Rv [1]; [3]) | VERO Tox-SRI (Vero cells) | also measured
1 | Nc1n[n+]([O-])c2cc3c(cc2[n+]1[O-])CCC3 [SRI-012398] | 2.5 µg/mL (≈ 11.5 µM) | – | –
2 | CCNc1n[n+]([O-])c2cc(C)c(C)cc2[n+]1[O-] [SRI-012399] | 2.5 µg/mL (≈ 10.7 µM) | – | –
3 | CC(C)(C)C1CCC(Nc2n[n+]([O-])c3cc(F)ccc3[n+]2[O-])CC1 (stereo not drawn) [SRI-012401] | 0.312 µg/mL (≈ 0.933 µM) | – | –
4 | [O-][n+]1nc(NC2CCC2)[n+]([O-])c2cc3c(cc21)CCC3 [SRI-012403] | 0.625 µg/mL (≈ 2.3 µM) | 33.6 | –
5 | Cc1cc2c(cc1C)[n+]([O-])c(NC1CCC1)n[n+]2[O-] [SRI-012459] | 0.625 µg/mL (≈ 2.4 µM) | 21.8 | –
6 | Cc1cccc2c1[n+]([O-])c(NC1CCC1)n[n+]2[O-] [SRI-012460] | 0.312 µg/mL (≈ 1.27 µM) | 21.8 | –
7 | COc1ccc2c(c1)[n+]([O-])nc(N[C@@H]1C[C@H]3CC[C@@H]1C3)[n+]2[O-] [SRI-012462] | 0.625 µg/mL (≈ 2.07 µM) | – | –
8 | COc1ccc2c(c1)[n+]([O-])nc(NC1CCC1)[n+]2[O-] [SRI-012463] | 0.625 µg/mL (≈ 2.38 µM) | 9.85 | –
9 | CCNc1n[n+]([O-])c2cc(Br)ccc2[n+]1[O-] [SRI-012464] | 0.625 µg/mL (≈ 2.19 µM) | – | –
10 | [O-][n+]1nc(NC2CCC2)[n+]([O-])c2ccc(Br)cc21 [SRI-012465] | 0.156 µg/mL (≈ 0.501 µM) | – | –
11 | [O-][n+]1nc(NC2CCCC2)[n+]([O-])c2ccc(Br)cc21 [SRI-012466] | 0.156 µg/mL (≈ 0.48 µM) | – | –
12 | [O-][n+]1nc(N[C@@H]2C[C@H]3CC[C@@H]2C3)[n+]([O-])c2ccc(Br)cc21 [SRI-012467] | 0.312 µg/mL (≈ 0.888 µM) | 0.81 | –
13 | CCNc1n[n+]([O-])c2cc(C)c(OC)cc2[n+]1[O-] [SRI-012468] | – | 100 | –
14 | COc1cc2c(cc1C)[n+]([O-])nc(NC1CCC1)[n+]2[O-] [SRI-012469] | – | 50 | –
15 | COc1cc2c(cc1C)[n+]([O-])nc(N[C@@H]1C[C@H]3CC[C@@H]1C3)[n+]2[O-] [SRI-012470] | – | 50 | –
16 | Cc1cccc2c1[n+]([O-])c(NC1CCCC1)n[n+]2[O-] [SRI-012473] | 0.312 µg/mL (≈ 1.2 µM) | 3.7 | –
17 | [O-][n+]1nc(N2CCCC2)[n+]([O-])c2ccccc21 [SRI-012495] | 0.312 µg/mL (≈ 1.34 µM) | – | TB MIC - UIC (Mtb H37Rv [2]): 17.4 µg/mL
18 | CCNc1n[n+]([O-])c2cc3c(cc2[n+]1[O-])CCCC3 [SRI-012496] | – | 21.78 | MIC (Mtb H37Rv [1]; [4]): 1.25 µg/mL (≈ 4.8 µM); MIC (Mtb H37Rv [1]; [5]): 1.25 µg/mL (≈ 4.8 µM)
19 | [O-][n+]1nc(NC2CCC2)[n+]([O-])c2cc3c(cc21)CCCC3 [SRI-012497] | – | 50 | MIC (Mtb H37Rv [1]; [4]): 1.25 µg/mL (≈ 4.37 µM); MIC (Mtb H37Rv [1]; [5]): 1.25 µg/mL (≈ 4.37 µM)
20 | [O-][n+]1nc(NC2CC3CCC2C3)[n+]([O-])c2cc3c(cc21)CCCC3 (stereo not drawn) [SRI-012498] | – | 50 | MIC (Mtb H37Rv [1]; [4]): 1.25 µg/mL (≈ 3.83 µM); MIC (Mtb H37Rv [1]; [5]): 1.25 µg/mL (≈ 3.83 µM)
21 | [O-][n+]1nc(N2CCCC2)[n+]([O-])c2cc3c(cc21)CCC3 [SRI-012530] | – | – | MIC (Mtb H37Rv [1]; [4]): 0.62 µg/mL (≈ 2.28 µM); MIC (Mtb H37Rv [1]; [5]): 0.625 µg/mL (≈ 2.3 µM)
22 | [O-][n+]1nc(N2CCCCC2)[n+]([O-])c2cc3c(cc21)CCC3 [SRI-012562] | 0.625 µg/mL (≈ 2.18 µM) | – | –
23 | CN(C)c1n[n+]([O-])c2cc3c(cc2[n+]1[O-])CCC3 [SRI-012563] | 0.625 µg/mL (≈ 2.54 µM) | – | –
24 | CN(Cc1ccccc1)c1n[n+]([O-])c2cc3c(cc2[n+]1[O-])CCC3 [SRI-012564] | 0.312 µg/mL (≈ 0.968 µM) | – | –
25 | CN(CCc1ccccc1)c1n[n+]([O-])c2cc3c(cc2[n+]1[O-])CCC3 [SRI-012565] | 0.312 µg/mL (≈ 0.927 µM) | – | –
26 | O=S1(=O)CCN(c2n[n+]([O-])c3cc4c(cc3[n+]2[O-])CCC4)CC1 [SRI-012566] | 5 µg/mL (≈ 14.9 µM) | – | MIC (Mtb H37Rv [1]; [6]): 5 µg/mL (≈ 14.9 µM)
27 | CC1CCCCN1c1n[n+]([O-])c2cc3c(cc2[n+]1[O-])CCC3 (stereo not drawn) [SRI-012567] | 1.25 µg/mL (≈ 4.16 µM) | – | MIC (Mtb H37Rv [1]; [6]): 1.25 µg/mL (≈ 4.16 µM)
28 | CS(=O)(=O)N1CCN(c2n[n+]([O-])c3cc4c(cc3[n+]2[O-])CCC4)CC1 [SRI-012568] | 5 µg/mL (≈ 13.7 µM) | – | MIC (Mtb H37Rv [1]; [6]): 5 µg/mL (≈ 13.7 µM)
